Values joined by “and” are separate entries in the source; they are usually repeats but may differ in a detail not shown here. Identical values can stand only once.
Key:
MCF7 = assay: In vitro direct cytotoxicity, Cell titer Blue viability, 72 hrs
Method: (§1) Cells were maintained in vitro in RPMI 1640 containing 10% (v/v) heat inactivated FBS and 2 mM L-glutamine (growth media) at 37° C. in 5% CO2 and humidified conditions. Cells were harvested, washed, resuspended into growth medium and counted. The cells were re-suspended into assay media (RPMI 1640+1% (v/v) heat inactivated FBS+ and 2 mM L-glutamine) at 0.5-1×10^5 cells/ml (dependent upon cell type) and plated into 96-well assay plates (Corning, black-wall plates) in 50 ul/well aliquots.
(§2) Plates were incubated overnight at 37° C. in 5% humidified CO2 prior to addition of the compounds. […] Stocks of all compounds were then serially diluted. Final concentrations to which cells were exposed were 300, 150, 75, 37.5, 18.75, 9.4, 4.7, 2.3, 1.2, 0.6 μM. Positive control was Cisplatin. Cisplatin was diluted in 1% FBS media to give a stock concentration of 1 mM. Cisplatin stock was then serially diluted. Final concentrations to which cells were exposed were 100, 50, 25, 12.5, 6.3, 3.1, 1.6, 0.8, 0.4, 0.2 μM.
(§3) Plates were incubated for 72 hrs at 37° C. in 5% humidified CO2 after addition of the compounds. Viability of the cells was assessed with the Cell titer Blue™ (Promega) assay. 10 μl of Cell titer Blue™ reagents was added to each test/blank well. Plates were incubated 3 h at 37° C. in 5% humidified CO2 prior to analysis. Fluorescence was measured with a Flex II station plate reader. Excitation wavelength was 570 nm, emission wave length was 600 nm, cut off was 590 nm. Raw data was processed by GraphPad Prism to calculate mean, standard deviation and IC50 values.

MDA-MB-231 = assay: as above
Method: as §1, §2, §3

[1] = Concentration of Mono-Sulfestrol in pooled plasma samples, LC-UV quantification; assay type: in vivo, male Sprague Dawley rats; settings: 10 mg/kg of the labelled compound, rat, pooled 0.5-8 hrs
Method: The concentration of Mono-Sulfestrol in the pooled samples described in Example 6 was quantified by LC-UV quantification.
A calibration standard solution was prepared as 10,000 ng/mL by adding an appropriate amount of Mono-Sulfestrol into 20% acetonitrile/0.1% formic acid in water. The peak area of the standard solution and the sample were measured with the wavelength set at 200 to 360 nm. The concentration levels of Mono-Sulfestrol were estimated using peak area (Area) of the standard and unknown samples and concentration of the standard (Concstd) by the following equation:
Areaunknown/Areastd=Concunknown/Concstd
Concunknown=Concstd·(Areaunknown/Areastd)

4-(4-(4-oxidophenyl)hex-3-en-3-yl)phenyl sulfate [Mono-Sulfestrol]
cytotoxicity in vitro (in words) (MCF7; MCF7): cytotoxic | IC50 (MCF7; read-out: IC50 value, MCF7, hormone-dependent breast cancer cell line, 72 hrs): 85 µM | cytotoxicity in vitro (in words) (MDA-MB-231; MDA-MB231): cytotoxic | IC50 (MDA-MB-231; read-out: IC50 value, MDA-MB-231, triple negative breast cancer cell line, 72 hrs): 185 µM | Mono-Sulfestrol concentration in pooled plasma sample ([1]; intravenous): 630.0 ng/ml and 1.5 μM | Mono-Sulfestrol concentration in pooled plasma sample ([1]; oral): 1150.6 ng/ml and 2.7 μM

Source: patent US20170246137A1, “SULFESTROL FOR TREATING CANCER” (CHAMAELEO PHARMA BVBA, priority 2012, published 2017)
